The nature of series [1]: Nuclease resistance assay in DMEM with 10% fetal bovine serum. The following applies: 0.1 µg/µl, DMEM with 10% FBS, 37°C; 12% PAAG/8M urea gel, Stains-All. In kind it is in vitro ADME. The method, then:
Oligonucleotides or conjugates (0.1 µg/µl) were incubated at 37°C in Dulbecco’s Modified Eagle Medium (DMEM) (Sigma, USA) with 10% fetal bovine serum (FBS; GE Healthcare, USA). Reactions were quenched in urea (8M) and immediately frozen in liquid nitrogen, prior to analysis of thawed samples in 12% PAAG/8M urea gels, using Tris-Borate-EDTA (TBE) as running buffer, Stains-All (MP Biomedicals, USA) and photographic gel documentation (VilberLourmat, France).

Series [2] has as its system B16 melanoma cells. Briefly: Annexin V-FITC/PI apoptosis assay. In kind it is cell-based, mouse. As to conditions: 1 µM with Lipofectamine; 24, 48, 72 h after transfection; maximum extent; flow cytometry. The protocol: (§1) B16 cells were pre-seeded (2 × 10^5 per well of 24-well plates) in DMEM/10% FBS a day before transfection. Medium was replaced with serum-free DMEM, prior to incubation for 4 h with h-ODN, 2′-OMe, Inh (hsa-miR-21 5 p inhibitor, Ambion, USA), miR-21-miRNase, or luc-POC, each (0.1 or 1 µM) pre-complexed with Lipofectamine (Thermo Fisher Scientific, USA) in Opti-MEM medium (Thermo Fisher Scientific, USA) according to manufacturer’s instructions, then cells were cultivated in fresh culture standard medium for 24–72 h.
At 24, 48, and 72 h after transfection, cells were harvested, washed twice with PBS, resuspended in Binding Buffer to a density of 2–5 × 10^5/ml, and incubated with annexin V-FITC and propidium iodide (PI) (ab14085, Abcam, UK) in the dark at room temperature for 15 min, prior to flow cytometry analysis (Novocyte CEA Biosciences, USA).
(§2) Figure 2 Biological effect of the miR-21-specific miRNase. (A) Apoptotic profile of B16 melanoma cells after transfection with miR-21-miRNase and control luc-POC. Cytofluorimetric analysis of cells after staining with Annexin V-FITC/PI 48 h after transfection with miRNase or luc-POC (1 µM) in complex with Lipofectamine2000. Q1—population of living cells; Q2—Annexin V-FITC+/PI-, early apoptosis; Q3—Annexin V-FITC+/PI+, late apoptosis; Q4—Annexin V-FITC-/PI+, necrosis. (B) Average percentage of apoptotic (early and late apoptosis) and necrotic B16 cell population. Data represent mean ± s.e. of four independent experiments.(C, D) Invasion activity of B16 cells after incubation with Lipofectamine (LF) alone or treated with either hairpin antisense oligonucleotide (h-ODN), hairpin 2′-OMe oligonucleotide (2′-OMe), commercial miR-21 inhibitor (Inh), miR-21-miRNase, and control conjugate (luc-POC) in the concentration of 1 µM. Migration of cells was recorded in real time using the xCELLigence cell analysis system. Control—B16 cells without treatment. Data represent mean ± s.d. of four independent experiments.
(A flow cytometer gives signals particle by particle.)

The test system of series [3] is B16 cells. Briefly: In vitro invasiveness assay (xCELLigence, Matrigel-coated CIM-Plates). In kind it is cell-based, mouse. The following applies: 1 µM with Lipofectamine; compared with Lipofectamine alone. The protocol:
as §1
Real-time cell analysis (xCELLigence, ACEABiosciences, USA) used CIM-Plates held at 37°C under an atmosphere of 5% CO2. Top chamber wells were coated with Matrigel (20 µl per well, diluted 1:40 with cold serum-free DMEM) and allowed to polymerize (4 h at 37°C under 5% CO2) prior to cell seeding. Bottom chamber wells were filled with DMEM/10% FBS (160 µl each), prior to assembly of the chambers, when serum-free DMEM was added to the top wells (30 µl each) and equilibrated (1 h at 37°C under 5% CO2). At 4 h after transfection, B16 cells (4 × 10^4) were seeded into each top chamber well in serum-free DMEM and pre-incubated for 30 min at room temperature before monitoring (xCELLigence set to collect impedance data, reported as cell index at least once every 30 min).
as §2

Series [4] relates to RLS40 lymphosarcoma. Briefly: Tumor transplantation assay: RLS40 cells treated ex vivo, then inoculated intramuscularly. The format is in vivo, CBA mice. The following applies: cells treated with 1 µM before transplantation. The method, then: (§3) RLS40 ascites were taken from CBA mice intraperitoneally injected with tumor cells (2 × 10^6 in 0.2 ml buffered saline) into their abdominal cavities. RLS40 cells, isolated from ascites fluid by filtration through LSM were divided into seven portions: 1) untreated cells; 2) the cells incubated with Lipofectamine; the cells transfected with 1 µM of 3) h-ODN, 4) 2′-OMe, 5) Inh, 6) miR-21-miRNase, or 7) luc-POC each. After 4 h of transfection, cell suspensions (0.1 ml, 2 × 10^6 cells) were intramuscularly inoculated into the right lower limb of CBA mice for solid tumor development. As soon as tumors began to be palpable, the tumor volumes were measured every 2–3 days using calipers. Tumor volumes were calculated as V = (π/6 × length × width × height). Hepatic index was estimated as (liver weight/mouse weight) × 100% and as 5.0% for healthy CBA mice. Tumor doubling time (DT) was estimated as DT = (t − t0) × ln 2/(ln V − ln V0), where (t − t0) indicates the length of time between two measurements of tumor size and V0 and V denote the tumor volume at two points of the measurement ([Ozono et al., 2004]).
Figure 3 Antitumor effect of miR-21-specific miRNase. (A) Retardation of RLS40 growth in vivo after treatment of RLS40 cells with antisense oligonucleotides, control conjugate (luc-POC), or miR-21-miRNase. (B) Tumor volume on day 19 after RLS40 transplantation. Mice were injected with RLS40 cells either without any treatment (w/t) or treated with Lipofectamine (LF), commercial miR-21 inhibitor at concentration 0.1 µM (Inh 0.1, recommended) and 1 µM (Inh 1, in accordance to concentration of miRNase used in the study), control conjugate (luc-POC, 1 µM), hairpin 2′OMe oligonucleotide (2′-OMe, 1 µM), hairpin antisense oligonucleotide (h-ODN, 1 µM) or miR-21-specific miRNase (miR-21-miRNase, 1 µM). Data were statistically analyzed using two-way ANOVA with post hoc Tukey test. Data are presented as mean ± s.e. p-value indicates a statistically reliable difference. (C) Doubling time of RLS40 tumors after treatment with oligonucleotides and conjugates. TEXT PRINTED IN THE PICTURE: (C) untreated: DT, days: 2,45±0,49 | (C) LF: DT, days: 2,48±0,35 | (C) Inh 0.1: DT, days: 2,56±0,59 | (C) Inh 1: DT, days: 13,90±0,46 | (C) 2’-OMe: DT, days: 3,17±1,45 | (C) luc-POC: DT, days: 2,40±0,45 | (C) h-ODN: DT, days: 3,00±1,83 | (C) miR-21-miRNase: DT, days: 12,77±0,34

Series [5] deals with RLS40 lymphosarcoma. Briefly: Hepatic index of mice implanted with treated RLS40 cells. The following applies: cells treated with 1 µM; (liver weight/mouse weight) × 100%; 5.0% for healthy CBA mice; Mean ± SE. The format is in vivo. The method, then:
as §3
Supplementary Table 2. Hepatic indexes of mice implanted with RLS40 treated with antisense
oligonucleotides, control luc-POC and miR-21-miRNase
Type of treatment Hepatic index, %* p-value (vs control)
* – Mean ± SE; s.i. – statistically insignificant
Hepatic index was estimated as (liver weight/mouse weight) × 100% and as 5.0% for healthy CBA
The MDR status of RLS40 may add to the burden on the liver, when this type of tumor
metastasizes into the liver (Sen’kova et al., 2012). Ex vivo treatment of RLS40 cells by
oligonucleotides and miRNase avoids the toxic effect of antisense oligonucleotides, their conjugates
and transfection reagents directly on the tumor-bearing animal. This may allow consideration of
whether the decrease of migration activity of tumor cells translated into reduced metastatic burden of
RLS40 on the liver. Treatment of the cells seeding the tumor may not reduce migration and […]

The record followed here is PMC6698794, “Catalytic Knockdown of miR-21 by Artificial Ribonuclease: Biological Performance in Tumor Model” (Frontiers in Pharmacology, 2019).

As for “ODN: linear 14-mer deoxyribooligonucleotide TCAGTCTGATAAGC (unmodified DNA)”, the “Survival (intact) in serum-containing medium” value in series [1] was “rapidly degraded”.

On to “acetyl-[(LeuArg)2Gly]2-aminohexyl-CGATAAATAACGCGСAAGTCAGCGAAAGCTGACTTG [luc-POC, control peptide-oligonucleotide conjugate; same hairpin, complementary part replaced by luciferase gene fragment]”, for which the “Necrosis of melanoma B16 cells (Annexin V-FITC-/PI+)” value in series [2] is given as “up to 6.5%”. Further, the “Migration rate of transfected B16 cells (in words)” value in series [3] is reported as “almost the same rate as cells incubated with Lipofectamine”. In series [4], the “Tumor doubling time against w/t (in words)” value was “did not show a statistically significant difference” and the “Tumor growth (in words)” value is reported as “did not differ”. For the same substance, the Hepatic index in series [5] was determined as 5.56±0.11%.
